Each structure is given as a SMILES string. Calls of active or inactive are those of the source.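 The calls were made as follows: active = caspase luminescence falls with dose and the half-maximal concentration AC50 from the fitted curve is at or below a set limit; inconclusive = flat fit at 30 to 70% signal loss, or invalid fit; inactive = AC50 above the limit, or signal rises instead.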 A value given as a limit tells only on which side of the number the result lay.

The assay concerns INS-1E cytokine-induced caspase-3/7, Caspase-Glo luminescence, 48 h. As to the kind of experiment: inhibitors of cytokine-induced caspase-3/7 activity, dose response, orthogonal assay for beta-cell apoptosis protection project, INS-1E rat cells, luminescence (AID 463206).
As for `O=C(NCc1cccnc1)/C(=C/c1ccc(-c2ccc(Cl)cc2)o1)S(=O)(=O)c1ccccc1`, the AC50 (in general, the concentration at which the activity in the assay is half-maximal) was > 26 µM (inactive).

`CC(=O)NC(c1cc(Cl)c2cccnc2c1O)C(C)C` (configuration not stated): the AC50 is > 26 µM (inactive). Consider `C1CCC(C(CC2CCCCN2)C2CCCCC2)CC1` (configuration not stated), for which the AC50 was > 26 µM (inactive).

`O=C(O)c1ccc(/C=C2\SC(=S)N(Nc3ccccc3)C2=O)cc1`: the AC50 was > 26 µM (inactive). As to `CC(=O)NC(c1ccco1)c1cc(F)c2cccnc2c1O` (configuration not stated), the AC50 was > 26 µM (inactive). Then `O=C(Nc1ccc(Cl)cc1)Nc1csc([N+](=O)[O-])c1`, with > 26 µM (inactive); and `CCN1/C(=C/C=C/c2oc3ccc(-c4ccccc4)cc3[n+]2CC)Oc2ccc(-c3ccccc3)cc21`, with > 26 µM (inactive); and `Cc1ccc2c(c1)S/C(=C/c1ccc[n+](CCO)c1)N2C`, with > 26 µM (inactive). The result for `Cc1cc(C(=O)N/N=C/c2cc(N=Nc3ccccc3)ccc2O)n[nH]1` reads > 26 µM (inactive). For the molecule `COc1ccccc1/C=N\Nc1cc(C)nc(-n2nc(C)cc2C)n1`, the AC50 is > 26 µM (inactive). As to `COC1=CC(=O)[C@]2(C=C1OC)OC[C@@H]1Oc3c(ccc4c3C=CC(C)(C)O4)C(=O)[C@@H]12`, the AC50 was > 26 µM (inactive). The result for `Cc1oc2c(c1C(=O)N1CCOCC1)C(=O)c1ccccc1C2=O` reads > 26 µM (inactive). Then `Cc1ccc(C(=O)OCn2ncc(Cl)c(Cl)c2=O)cc1`, with > 26 µM (inactive). Then `Cc1cc(Br)cc(/C=N/NC(=O)c2ccc3c(c2)OCO3)c1O`, with > 26 µM (inactive); and `CCCCCCC[n+]1ccc(-c2cc[n+](CCCCCCC)cc2)cc1`, with > 26 µM (inactive); and `COc1ccccc1C(CCNCc1ccc(N(C)C)cc1)c1ccc(OC(C)C)cc1` (configuration not stated), with > 26 µM (inactive). Consider `CC(=O)Nc1ccc(NC(=O)CN(c2cccc([N+](=O)[O-])c2)S(C)(=O)=O)cc1`, for which the AC50 was > 26 µM (inactive). The result for `Cc1nnc(N/N=C/c2cc([N+](=O)[O-])c(N3CCC(C)CC3)cc2N2CCC(C)CC2)n1N` reads > 26 µM (inactive); that for `C=CCn1c(SCC(=O)c2[nH]c(C)c(C(=O)OCC)c2C)nc2scc(-c3ccc(OC)c(OC)c3)c2c1=O`, > 12 µM (inactive). Then `O=C(N/N=C\c1ccc([N+](=O)[O-])s1)c1cncc(Br)c1`, with > 26 µM (inactive); and `CCn1c(C)c(C)c2cc(C(=O)N3CCc4ccccc4C3)ccc21`, with > 26 µM (inactive). Then `Cc1csc2nc(NC(=O)c3ccccc3)sc(=O)c12`, with > 26 µM (inactive); and `COc1ccc(OC)c(NC(=O)CN(Cc2ccc(F)cc2)C2CCCCC2)c1`, with > 26 µM (inactive); and `COc1ccccc1NC1=C(N2CCCCC2)C(=O)c2ccccc2C1=O`, with > 26 µM (inactive). For `C=CCc1c(C)nc(C)nc1N/N=C/c1ccc(N(C)C)cc1`, the AC50 is > 26 µM (inactive). Then `COC(=O)c1sc(-c2ccc(C(C)(C)C)cc2)cc1NC(=O)/C=C/C(=O)O`, with > 26 µM (inactive).

Consider `CCn1cc(C(=O)O)c(=O)c2cc(F)c(N/N=C/c3ccccc3[N+](=O)[O-])cc21`, for which the AC50 is > 12 µM (inactive). Then `C=C(C)C(=O)N1CC2(CC(c3cccc(NC(=O)COc4ccc(Cl)cc4)c3)=NO2)C[C@@H]1C(N)=O` (some centres not stated), with > 26 µM (inactive); and `CSc1nc(N)nc2c1ncn2CC(=O)N1CCN(Cc2c(C)cc(C)cc2C)CC1`, with > 26 µM (inactive). The result for `O=C(Nc1cccc(Cl)c1)Nc1nnc(-c2ccncc2)s1` reads > 26 µM (inactive). Then `COc1ccc(Cn2cc3c(-c4ccc(F)cc4)nnc-3c3cc(OC)c(OC)cc32)cc1`, with 12.9 µM.

For the molecule `Nc1c(C(=O)Nc2ccc(S(=O)(=O)N3CCCC3)cc2)sc2nc3cc4c(cc3cc12)CCC4`, the AC50 is > 26 µM (inactive). Take `Cc1ccccc1NC1=C/C(=N\S(=O)(=O)c2ccc(C(=O)O)cc2)c2ccccc2C1=O`: the AC50 is > 26 µM (inactive).

As for `CCOc1ccc(Nc2cc(C)nc(-n3nc(C)cc3C)n2)cc1`, the AC50 was > 26 µM (inactive). The result for `O=C(NC(c1cccnc1)C(F)(F)F)c1cc(COc2ccc3c(c2)CCCC3)on1` (configuration not stated) reads > 26 µM (inactive). The result for `CC(C)Nc1ccc(Nc2ccccc2)cc1` reads > 26 µM (inactive).

With `CC1=C(CO)C(=O)OC([C@@H](C)C2CC[C@H]3C4C[C@H]5O[C@]56[C@@H](O)C=CC(=O)[C@]6(C)C4CC[C@]23C)C1` (some centres not stated), the AC50 is > 26 µM (inactive).

Take `N=c1c2c(n(Cc3ccc(Cl)cc3Cl)c3c1CCC3)CCCC2`: the AC50 is > 26 µM (inactive).

In the case of `O=C(N/N=C/c1cc(Cl)ccc1O)c1ccc(Br)cc1`, the AC50 was > 26 µM (inactive). Regarding `Cc1ccc2[nH]c(=O)c(C3C(C#N)=C(N)Oc4c3ccc3cccnc43)cc2c1` (configuration not stated), the AC50 is > 26 µM (inactive). Then `Cc1ccccc1OCCCCn1cnc2ccccc21`, with > 12 µM (inactive); and `O=C(NCc1ccccc1)C1=C[C@@H](c2csc3ccccc23)C[C@@H](OCc2ccc(CO)cc2)O1`, with > 26 µM (inactive); and `COc1cc(-c2nc3ccc(C)cn3c2NCc2ccccc2)ccc1-c1cccc(Cl)c1`, with > 26 µM (inactive). The result for `CC(C)(C)c1ccc(/C=C(\c2nc3ccccc3[nH]2)S(=O)(=O)c2ccccc2)cc1` reads > 26 µM (inactive); that for `CC(CNC(=O)c1ccc(OC2CCN(Cc3ccccn3)CC2)cc1)Oc1cccnc1` (configuration not stated), > 26 µM (inactive). `CCc1ccc(-c2cc(C(F)(F)F)n3nc(C(=O)Nc4cnn(Cc5ccc(C)cc5)c4)cc3n2)s1`: the AC50 was > 26 µM (inactive). For the molecule `O=C(CNC(=O)c1ccccc1)N/N=C/c1cc(Br)ccc1O`, the AC50 was > 26 µM (inactive).

For `Cc1cc(C(=O)NC2CCCc3c2cnn3-c2cccc(C)c2C)n(C)n1` (configuration not stated), the AC50 is > 26 µM (inactive).

`C/C(=N\N1C(=O)c2ccccc2NC1c1ccccc1)c1ccccc1O` (configuration not stated): the AC50 was > 26 µM (inactive). Then `O=C1/C(=C\c2cccnc2)CN(Cc2ccccc2)C/C1=C\c1cccnc1`, with > 26 µM (inactive). The result for `CCC(CO)[n+]1c(C)cc(/C=C2\Sc3ccccc3N2Cc2ccccc2)cc1C` (configuration not stated) reads > 26 µM (inactive); that for `O=[N+]([O-])c1ccc(N2CCN(C(=S)NCc3ccc(Cl)cc3)CC2)cc1`, > 26 µM (inactive); that for `COc1ccc(Cn2c(-c3ccc(C)cc3)c[n+]3ccccc23)cc1`, > 26 µM (inactive). The result for `C=C1C(=O)O[C@@H]2C[C@@H](C)[C@@H]3C4OC4C(=O)[C@@]3(C)[C@@H](O)[C@H]12` (some centres not stated) reads > 26 µM (inactive); that for `N/C(=N\OC(=O)c1ccc(Cl)cc1Cl)c1ccccn1`, > 26 µM (inactive). Take `Cc1ccc(NC(=O)Cn2c(O)c(N=NC(=O)c3cc4ccccc4cc3O)c3ccccc32)cc1`: the AC50 was > 26 µM (inactive). The result for `Cc1cc(OCC(=O)N(C)Cc2ccccc2)ccc1Cl` reads > 26 µM (inactive). The result for `CCCC(=O)NC(c1ccccc1)c1ccc2cccnc2c1O` (configuration not stated) reads > 26 µM (inactive); that for `Cc1nc(NC(=O)C23CC4CC(CC(C4)C2)C3)sc1Cc1ccc2c(c1)OCO2`, > 26 µM (inactive); that for `Cc1noc(-c2ccc(C(F)(F)F)cc2)c1NC(=O)Nc1ccc(Cl)cc1`, > 26 µM (inactive). Then `CC(C)(C)n1nnnc1C(c1ccc(F)cc1)N(Cc1ccc(F)cc1)Cc1ccco1` (configuration not stated), with > 26 µM (inactive); and `N/C(=N\NC(=O)c1sccc1OCc1ccc(Cl)cc1Cl)c1ccccn1`, with > 26 µM (inactive); and `COc1ccc2c(c1)[nH]c1c(N3CCN(Cc4ccc5c(c4)OCO5)CC3)ncnc12`, with > 26 µM (inactive).

Consider `CCN(CC)CCn1nc2c3c(cccc3c1=O)-c1ccccc1-2`, for which the AC50 is 8.24 µM. The result for `COc1ccc(-n2c(-c3ccc(Br)cc3)c[n+]3c2CCCCC3)cc1` reads > 26 µM (inactive); that for `CN(C)CCOc1ccc(-c2c(-c3ccccc3)sc3ccccc23)cc1`, > 26 µM (inactive). The result for `O=NN(CCc1ccncc1)c1ccc(OCc2ccccc2)cc1` reads > 26 µM (inactive); that for `OC(c1cc(-c2ccc(Cl)cc2)nc2ccccc12)C1CCCCN1` (configuration not stated), > 26 µM (inactive); that for `Cc1cccc2cc(-c3ccccc3)c(-c3ccccc3)c[n+]12`, > 26 µM (inactive). The result for `O=C(OCn1ncc(Cl)c(Cl)c1=O)c1ccc(F)cc1` reads > 26 µM (inactive). `CCCOC(=O)/C(C(N)=NCc1ccccc1)=C(\O)OCCC`: the AC50 is > 26 µM (inactive). For `COC(=O)[C@H](Cc1ccccc1)N(Cc1ccccc1)S(=O)(=O)N(Cc1ccccc1)[C@@H](Cc1ccccc1)C(=O)OC`, the AC50 is > 26 µM (inactive). On to `Nc1c(Cl)ncnc1N/N=C/c1ccc2ccccc2n1`, for which the AC50 is > 26 µM (inactive). The result for `O=C(CNC(=O)c1ccccc1O)N/N=C/c1cc(Br)ccc1OC(=O)/C=C/c1ccco1` reads > 26 µM (inactive); that for `Cc1nc(N/N=C/c2ccccn2)sc1C`, > 26 µM (inactive).

Turning to `COc1ccc(C(=O)N/N=C(\c2ccccc2)c2ccccn2)cc1`, the AC50 is > 26 µM (inactive). The result for `Cn1nccc1C(=O)NC1CCCc2c1cnn2-c1ccccc1F` (configuration not stated) reads > 26 µM (inactive). Then `O=C(c1cccnc1)N(c1cc2sc(=O)oc2c2ccccc12)S(=O)(=O)c1ccccc1`, with > 26 µM (inactive); and `O=S1(=O)C=C(Sc2nc3ccccc3s2)c2ccccc21`, with > 26 µM (inactive); and `Cc1sc2ncnc(N3CCN(CCOc4ccc(Cl)cc4)CC3)c2c1C`, with > 26 µM (inactive). Then `CC(=O)Oc1c(C)cc(Cl)cc1C(=O)Nc1ccc([N+](=O)[O-])cc1Cl`, with > 26 µM (inactive). On to `COc1cc(SC#N)ccc1N=Cc1c(C)[nH]n(-c2ccc(C)cc2)c1=O`, for which the AC50 is > 26 µM (inactive).

For the origin of these results see PubChem BioAssay AID463206 (Broad Institute, 2010).
